Source: patent publication US20250154358A1, “ORGANIC DYE COMPOSITION, AND SPRAY AGENT COMPRISING SAME” (PANASONIC INTELLECTUAL PROPERTY MANAGEMENT CO., LTD., priority 2022, published 2025)

Assays:
[1] = test system: Staphylococcus aureus; test: Color change observation after spraying on bacterial liquid (Staphylococcus aureus); assay type: cell-based; conditions: detection of S. aureus; statement in the discussion
[2] = test system: E. coli; test: Color change observation after spraying on bacterial liquid (E. coli); assay type: cell-based; conditions: detection of E. coli; statement in the discussion
Description: 100 μL of a bacterial liquid (E. coli, […]) was added dropwise onto a slide glass. Then, a sample solution (organic dye composition) of each of Examples and Comparative Examples was placed in a spray bottle (φ39×147 mm, capacity 100 ml), and sprayed (one push) to the bacterial liquid on the slide glass. Thereafter, after leaving for 15 minutes, the following fluorescence observation and color change observation were performed. • Fluorescence observation (visual visibility)
For fluorescence observation, the sprayed part was irradiated with an LED light (530 nm output, color: green), and visual observation was performed through a red filter. The evaluation criteria were as follows. • good: Emission of the solution can be clearly visually recognized • fair: Emission of the solution can be visually recognized but very weak • poor: Emission of the solution cannot be visually recognized • Color change • Color change was visually observed and evaluated according to the following criteria: • good: Color change of the solution can be clearly visually recognized • fair: Color change of the solution can be visually recognized but very weak • poor: Color change of the solution cannot be visually recognized or no color change occurs

SMILES: CC(C)COC(=O)Oc1ccc2nc3ccc(=O)cc-3oc2c1 [Formula (4)]
- color change, compared with the dye represented by Formula (2) [1]: more clearly visually recognized
- color change, compared with the dye represented by Formula (2) [2]: more clearly visually recognized
